For 26 molecules, EC50 results are on record in patent US6054591A, “Lymph-absorbable aryl substituted imidazole derivatives” (Shionogi & Co., Ltd., priority 1996, dated 2000).

Converted amounts (≈) assume the structure as drawn. Read-outs that look alike come from different tables or passages of the source.

The subject of the assay is HIV (HTLV-IIIB strain). Kind of assay: Infection inhibitory activity (anti-HIV activity, MTT assay in MT-4 cells). Type of assay: cell-based. The method, then:
Infection inhibitory activity of the compound
The anti-HIV activity of the representative compounds prepared in the above examples was assayed by the following procedures.
Human T cell line MOLT-4 clone 8 persistently infected by HIV (HTLV-IIIB strain) was cultured in an RPMI-1640 medium supplemented with 10% fetal calf serum, the culture supernatant was filtered, the titer of virus was determined on the filtrate, and the culture supernatant was stored at -80° C. On the other hand, the test compound was diluted with the above culture medium to predetermined concentration range 1 μg/ml to 1 ng/ml and distributed in 50 μl aliquots into a 96-well microtiter plate. Then, a suspension of MT-4 cells was added in 100 μl aliquots (3.5×10^4 cells per well) and then 50 μl (60 pfu (plaque forming units)) per well of the above HIV-containing supernatant diluted with the above culture medium each was added.
The plate was incubated in a CO2 incubator at 37° C. for 5 days. Then, 30 μl/well of 3-(4,5-dimethylthiazol-2-yl)-2,5-[…] (MTT) and 5 mg/ml PBS was added and the incubation was further continued for 1 hour. The surviving cells reducing MTT yield precipitation of formazan. Therefore, 150 μl portions of the culture supernatant were removed from all wells and, instead, 150 μl of a solution (10% Triton X-100 and 0.4% (v/v) HCl added isopropanol) was added. The plate was shaken on a plate mixer to dissolve the formazan. The OD of formazan was measured with a microreader at 560 nm and 690 nm (reference wavelength) and the result was compared with that of control. The cytotoxic effect for the virus was expressed as EC50.

[1] abbreviates: Human immunodeficiency virus 1, IIIB, MT4, 120 h.
Where [2] appears, read: Human immunodeficiency virus 1, MT4, 120 h, MT-4 cells, HIV HTLV-IIIB, 5 days at 37° C., MTT, read-out: EC50.

Under setting [1], `CC(C)c1nc(COC(=O)NC(=O)Oc2cccc3ccccc23)n(Cc2ccncc2)c1Sc1cc(Cl)cc(Cl)c1` [Compound 104, 5-(3,5-Dichlorophenylthio)-4-isopropyl-1-(4-pyridylmethyl)-1H-imidazol-2-ylmethyl 1-naphthyl iminodicaboxylate] had an EC50 below 8 ng/mL.
Take `CC(C)c1nc(COC(=O)NCN(Cc2ccccc2)Cc2ccccc2)n(Cc2ccncc2)c1Sc1cc(Cl)cc(Cl)c1` [Compound 114, 5-(3,5-Dichlorophenylthio)-4-isopropyl-1-(4-pyridylmethyl)-1H-imidazol-2-ylmethyl dibenzylaminomethylcarbamate]: under setting [2], the EC50 was in the range of 3 to 5 ng/mL (≈ 0.00454 to 0.00757 µM).
Still for that read-out and setting: as for `CCCCCCCC(=O)NC(=O)OCc1nc(C(C)C)c(Sc2cc(Cl)cc(Cl)c2)n1CC` [Compound 82, 5-(3,5-Dichlorophenylthio)-1-ethyl-4-isopropyl-1H-imidazol-2-ylmethyl octanoylcarbamate], the figure is 8 to 16 ng/mL (≈ 0.0155 to 0.0311 µM).
As to `CCn1c(COC(=O)NC(=O)c2ccc(Cl)cc2)nc(C(C)C)c1Sc1cc(Cl)cc(Cl)c1` [Compound 86, 5-(3,5-Dichlorophenylthio)-1-ethyl-4-isopropyl-1H-imidazol-2-ylmethyl 4-chlorobenzoylcarbamate], the concentration for a half-maximal effect (EC50) under setting [2] amounted to 8 ng/mL (≈ 0.0152 µM).
The same measure, in the same setting: as for `CC(C)c1nc(COC(=O)NCN2CCOCC2)n(Cc2ccncc2)c1Sc1cc(Cl)cc(Cl)c1` [Compound 113, 5-(3,5-Dichlorophenylthio)-4-isopropyl-1-(4-pyridylmethyl)-1H-imidazol-2-ylmethyl morpholinomethylcarbamate], the figure is 3 to 5 ng/mL (≈ 0.00545 to 0.00908 µM); as for `CCn1c(COC(=O)NC(=O)c2cc(Cl)cc(Cl)c2)nc(C(C)C)c1Sc1cc(Cl)cc(Cl)c1` [Compound 87, 5-(3,5-Dichlorophenylthio)-1-ethyl-4-isopropyl-1H-imidazol-2-ylmethyl 3,5-dichlorobenzoylcarbamate], 8 ng/mL (≈ 0.0143 µM).
In the case of `CC(C)c1nc(COC(=O)NC(=O)Oc2ccc(-c3ccccc3)cc2)n(Cc2ccncc2)c1Sc1cc(Cl)cc(Cl)c1` [Compound 103, 5-(3,5-Dichlorophenylthio)-4-isopropyl-1-(4-pyridylmethyl)-1H-imidazol-2-ylmethyl 4-biphenyl iminodicaboxylate], the EC50 under setting [1] turned out to be 8 ng/mL (≈ 0.0124 µM).
In the case of `Cc1nc(C(C)C)c(Sc2cc(Cl)cc(Cl)c2)n1COCCO` [Compound 8, 5-(3,5-Dichlorophenylthio)-4-isopropyl-1-[2-hydroxyethoxymethyl]-2-methyl-1H-imidazole], the concentration for a half-maximal effect (EC50) under setting [2] was 5 ng/mL (≈ 0.0133 µM).
The same measure, in the same setting: as for `CCCCCCCC(=O)OCc1nc(C(C)C)c(Sc2cc(Cl)cc(Cl)c2)n1CC` [Compound 108, 5-(3,5-Dichlorophenylthio)-1-ethyl-4-isopropyl-1H-imidazol-2-ylmethyl octanoate], the figure is 8 ng/mL (≈ 0.017 µM); as for `CCn1c(CCOC2=CCCCCCC2)nc(C(C)C)c1Sc1cc(Cl)cc(Cl)c1` [Compound 59], 2.5 to 5 ng/mL (≈ 0.00535 to 0.0107 µM); as for `Cc1nc(C(C)C)c(Sc2cc(Cl)cc(Cl)c2)n1COCCOCOC(=O)C(C)(C)C` [Compound 77, 2-[5-(3,5-Dichlorophenylthio)-4-isopropyl-2-methyl-imidazol-1-ylmethoxy]ethyl 2,2-dimethylpropionyloxymethyl ether], 8 ng/mL (≈ 0.0163 µM).
For `Cc1nc(C(C)C)c(Sc2cc(Cl)cc(Cl)c2)n1COCCOC1=CCCCCCC1` [Compound 11, 1-[2-(Cycloocten-1-yloxy)ethoxymethyl]-5-(3,5-dichlorophenylthio)-4-isopropyl-2-methyl-1H-imidazole], the EC50 under setting [2] was 8 ng/mL (≈ 0.0165 µM).
On the same count and under the same terms, under `CCn1c(COC(=O)NC(C)=O)nc(C(C)C)c1Sc1cc(Cl)cc(Cl)c1` [Compound 80, 5-(3,5-Dichlorophenylthio)-1-ethyl-4-isopropyl-1H-imidazol-2-ylmethyl acetylcarbamate] stands 1 ng/mL (≈ 0.00232 µM).
As to `CCCCCCCCCC(=O)OCc1nc(C(C)C)c(Sc2cc(Cl)cc(Cl)c2)n1CC` [Compound 109, 5-(3,5-Dichlorophenylthio)-1-ethyl-4-isopropyl-1H-imidazol-2-ylmethyl decanoate], under setting [2], the concentration giving a half-maximal response (EC50) fell in the range of 8 to 16 ng/mL (≈ 0.016 to 0.032 µM).
For the molecule `Cc1nc(C(C)C)c(Sc2cc(Cl)cc(Cl)c2)n1COCCOC(=O)CCCCCCCCCCCCCCC(=O)O` [Compound 75, Mono-{2-[5-(3,5-dichlorophenylthio)-4-isopropyl-2-methyl-imidazol-1-ylmethoxy]ethyl} hexadecanedioate], the concentration giving a half-maximal response (EC50) under setting [2] is 8 ng/mL (≈ 0.0124 µM).
Still for that read-out and setting: under `CC(=O)NC(=O)OCc1nc(C(C)C)c(Sc2cc(Cl)cc(Cl)c2)n1Cc1ccncc1` [Compound 90, 5-(3,5-Dichlorophenylthio)-4-isopropyl-1-(4-pyridylmethyl)-1H-imidazol-2-ylmethyl acetylcarbamate] stands below 8 ng/mL; under `CCn1c(CCO)nc(C(C)C)c1Sc1cc(Cl)cc(Cl)c1` [Compound 54], 2 ng/mL (≈ 0.00557 µM); under `CCn1c(CO)nc(C(C)C)c1Sc1cc(Cl)cc(Cl)c1` [Compound 19, 2-hydroxymethyl-5-(3,5-dichlorophenylthio)-4-isopropyl-1-ethyl-1H-imidazole], 4 ng/mL (≈ 0.0116 µM).
On the same count and under the same terms, as for `Cc1nc(C(C)C)c(Sc2cc(Cl)cc(Cl)c2)n1COCCOC(=O)CCC(=O)O` [Compound 76, Mono-{2-[5-(3,5-dichlorophenylthio)-4-isopropyl-2-methyl-imidazol-1-ylmethoxy]ethyl succinate], the figure is 8 ng/mL; as for `CC(C)c1nc(CO)n(C)c1Sc1cc(Cl)cc(Cl)c1` [Compound 14, 5-(3,5-dichlorophenylthio)-4-isopropyl-1-methyl-2-hydroxymethyl-1H-imidazole], 16 ng/mL (≈ 0.0483 µM); as for `CCCCN(CCCC)CNC(=O)OCc1nc(C(C)C)c(Sc2cc(Cl)cc(Cl)c2)n1Cc1ccncc1` [Compound 112, 5-(3,5-Dichlorophenylthio)-4-isopropyl-1-(4-pyridylmethyl)-1H-imidazol-2-ylmethyl di-n-butylaminomethylcarbamate], 3 ng/mL (≈ 0.00506 µM).
On the same count and under the same terms, as for `CCCCCCCCCC(=O)NC(=O)OCc1nc(C(C)C)c(Sc2cc(Cl)cc(Cl)c2)n1Cc1ccncc1` [Compound 92, 5-(3,5-Dichlorophenylthio)-4-isopropyl-1-(4-pyridylmethyl)-1H-imidazol-2-ylmethyl decanoylcarbamate], the figure is below 8 ng/mL; as for `Cc1cc(C)cc(Sc2c(C(C)C)nc(C)n2COCCO)c1` [Compound 1, 5-(3,5-dimethylphenylthio)-4-isopropyl-1-(2-hydroxyethoxymethyl)-2-methyl-1H-imidazole], 8 ng/mL (≈ 0.0239 µM); as for `CCCCCCCC(=O)NC(=O)OCc1nc(C(C)C)c(Sc2cc(Cl)cc(Cl)c2)n1Cc1ccncc1` [Compound 91, 5-(3,5-Dichlorophenylthio)-4-isopropyl-1-(4-pyridylmethyl)-1H-imidazol-2-ylmethyl octanoylcarbamate], 8 to 16 ng/mL (≈ 0.0139 to 0.0277 µM).
With `Cc1cc(C)cc(Sc2c(C(C)C)nc(C)n2COCCOC(=O)CCC(=O)O)c1` [Compound 68, Mono-{2-[5-(3,5-dimethylphenylthio)-4-isopropyl-2-methyl-imidazol-1-yl]methoxyethyl}succinate], the EC50 under setting [2] worked out at 8 ng/mL.
The same measure, in the same setting: under `CC(C)c1nc(COC(N)=O)n(Cc2ccncc2)c1Sc1cc(Cl)cc(Cl)c1` [Compound 111, 5-(3,5-dichlorophenylthio)-4-isopropyl-1-(4-pyridylmethyl)-1H-imidazol-2-ylmethyl carbamate] stands 0.9 ng/mL (≈ 0.00199 µM).

The EC50 is the concentration at which the effect is half-maximal.
